Converted amounts (≈) assume the structure as drawn. Like-named read-outs stand apart in the source and are kept apart here.
Tests used:
in vitro = conditions: mouse, liver microsomes
[1] = test system: Staphylococcus aureus MRSA 17-3; assay: microbe, parasite or virus in culture; design: species or system gram-positive clinical isolates; conditions: Staphylococcus aureus, MRSA
[2] = test system: Enterococcus faecium EFM 15-8; assay: microbe, parasite or virus in culture; design: species or system gram-positive clinical isolates; conditions: Enterococcus faecium
[3] = test system: Enterococcus faecalis EFA 15-60; assay: microbe, parasite or virus in culture; design: species or system gram-positive clinical isolates; conditions: Enterococcus faecalis
[4] = test system: Staphylococcus aureus MSSA 15-5; assay: microbe, parasite or virus in culture; design: species or system gram-positive clinical isolates; conditions: Staphylococcus aureus, MSSA
[5] = test system: Staphylococcus aureus MRSA 15-1; assay: microbe, parasite or virus in culture; design: species or system gram-positive clinical isolates; conditions: Staphylococcus aureus, MRSA
[6] = test system: Staphylococcus aureus MRSA 17-1; assay: microbe, parasite or virus in culture; design: species or system gram-positive clinical isolates; conditions: Staphylococcus aureus, MRSA
[7] = test system: Staphylococcus aureus MRSA 16-2; assay: microbe, parasite or virus in culture; design: species or system gram-positive clinical isolates; conditions: Staphylococcus aureus, MRSA
[8] = test system: Enterococcus faecium EFM 15-6; assay: microbe, parasite or virus in culture; design: species or system gram-positive clinical isolates; conditions: Enterococcus faecium
[9] = test system: Staphylococcus epidermidis MRSE 15-76; assay: microbe, parasite or virus in culture; design: species or system gram-positive clinical isolates; conditions: Staphylococcus epidermidis, MRSE
[10] = test system: Staphylococcus aureus MSSA 16-2; assay: microbe, parasite or virus in culture; design: species or system gram-positive clinical isolates; conditions: Staphylococcus aureus, MSSA
[11] = test system: Staphylococcus epidermidis MRSE 15-82; assay: microbe, parasite or virus in culture; design: species or system gram-positive clinical isolates; conditions: Staphylococcus epidermidis, MRSE
[12] = test system: Staphylococcus aureus MRSA 17-10; assay: microbe, parasite or virus in culture; design: species or system gram-positive clinical isolates; conditions: Staphylococcus aureus, MRSA
[13] = test system: Staphylococcus epidermidis MSSE 15-3; assay: microbe, parasite or virus in culture; design: species or system gram-positive clinical isolates; conditions: Staphylococcus epidermidis, MSSE153, read-out: MIC(μg/ml) / 1b
[14] = test system: Enterococcus faecalis EFA 15-66; assay: microbe, parasite or virus in culture; design: species or system gram-positive clinical isolates; conditions: Enterococcus faecalis
[15] = test system: Staphylococcus aureus MRSA 17-4; assay: microbe, parasite or virus in culture; design: species or system gram-positive clinical isolates; conditions: Staphylococcus aureus, MRSA
[16] = test system: Enterococcus faecium EFM 15-1; assay: microbe, parasite or virus in culture; design: species or system gram-positive clinical isolates; conditions: Enterococcus faecium
[17] = test system: Staphylococcus aureus MRSA 17-9; assay: microbe, parasite or virus in culture; design: species or system gram-positive clinical isolates; conditions: Staphylococcus aureus, MRSA
[18] = test system: Staphylococcus aureus MRSA 15-3; assay: microbe, parasite or virus in culture; design: species or system gram-positive clinical isolates; conditions: Staphylococcus aureus, MRSA
[19] = test system: Enterococcus faecalis EFA 15-68; assay: microbe, parasite or virus in culture; design: species or system gram-positive clinical isolates; conditions: Enterococcus faecalis
[20] = test system: Enterococcus faecalis EFA 15-55; assay: microbe, parasite or virus in culture; design: species or system gram-positive clinical isolates; conditions: Enterococcus faecalis
[21] = test system: Staphylococcus epidermidis MRSE 15-80; assay: microbe, parasite or virus in culture; design: species or system gram-positive clinical isolates; conditions: Staphylococcus epidermidis, MRSE
[22] = test system: Staphylococcus aureus MSSA 16-1; assay: microbe, parasite or virus in culture; design: species or system gram-positive clinical isolates; conditions: Staphylococcus aureus, MSSA
[23] = test system: Staphylococcus epidermidis MSSE 15-2; assay: microbe, parasite or virus in culture; design: species or system gram-positive clinical isolates; conditions: Staphylococcus epidermidis, MSSE152, read-out: MIC(μg/ml) / 1b
[24] = test system: Staphylococcus aureus MRSA 17-5; assay: microbe, parasite or virus in culture; design: species or system gram-positive clinical isolates; conditions: Staphylococcus aureus, MRSA
[25] = test system: Staphylococcus aureus MRSA 17-6; assay: microbe, parasite or virus in culture; design: species or system gram-positive clinical isolates; conditions: Staphylococcus aureus, MRSA
[26] = read-out: MIC(μg/ml) / vancomycin

CCCCCOc1ccc(C(=O)NNC(=S)NC(C)=O)cc1 [1b, N-(2-(4-(n-pentoxy)benzoyl)hydrazine-1-carbonothioyl)acetamide]
microsomal CLint (in vitro): 49 µL/min/mg | MIC ([1]; read-out: MIC(μg/ml) / 1b): 2 µg/mL (≈ 6.18 µM) | MIC ([2]; EFM158, read-out: MIC(μg/ml) / 1b): 2 µg/mL (≈ 6.18 µM) | MIC ([3]; EFA1560, read-out: MIC(μg/ml) / 1b): 8 µg/mL (≈ 24.7 µM) | MIC ([4]; read-out: MIC(μg/ml) / 1b): 2 µg/mL (≈ 6.18 µM) | MIC ([5]; read-out: MIC(μg/ml) / 1b): 4 µg/mL (≈ 12.4 µM) | MIC ([6]; read-out: MIC(μg/ml) / 1b): 2 µg/mL (≈ 6.18 µM) | MIC ([7]; read-out: MIC(μg/ml) / 1b): 2 µg/mL (≈ 6.18 µM) | MIC ([8]; EFM156, read-out: MIC(μg/ml) / 1b): 2 µg/mL (≈ 6.18 µM) | MIC ([9]; read-out: MIC(μg/ml) / 1b): 2 µg/mL (≈ 6.18 µM) | MIC ([10]; read-out: MIC(μg/ml) / 1b): 1 µg/mL (≈ 3.09 µM) | MIC ([11]; read-out: MIC(μg/ml) / 1b): 1 µg/mL (≈ 3.09 µM) | MIC ([12]; read-out: MIC(μg/ml) / 1b): 2 µg/mL (≈ 6.18 µM) | MIC [13]: 1 µg/mL (≈ 3.09 µM) | MIC ([14]; EFA1566, read-out: MIC(μg/ml) / 1b): 4 µg/mL (≈ 12.4 µM) | MIC ([15]; read-out: MIC(μg/ml) / 1b): 2 µg/mL (≈ 6.18 µM) | MIC ([16]; EFM151, read-out: MIC(μg/ml) / 1b): 8 µg/mL (≈ 24.7 µM) | MIC ([17]; read-out: MIC(μg/ml) / 1b): 2 µg/mL (≈ 6.18 µM) | MIC ([18]; read-out: MIC(μg/ml) / 1b): 4 µg/mL (≈ 12.4 µM) | MIC ([19]; EFA1568, read-out: MIC(μg/ml) / 1b): 4 µg/mL (≈ 12.4 µM) | MIC ([20]; EFA1555, read-out: MIC(μg/ml) / 1b): 8 µg/mL (≈ 24.7 µM) | MIC ([21]; read-out: MIC(μg/ml) / 1b): 1 µg/mL (≈ 3.09 µM) | MIC ([22]; read-out: MIC(μg/ml) / 1b): 1 µg/mL (≈ 3.09 µM) | MIC [23]: 1 µg/mL (≈ 3.09 µM) | MIC ([24]; read-out: MIC(μg/ml) / 1b): 2 µg/mL (≈ 6.18 µM) | MIC ([25]; read-out: MIC(μg/ml) / 1b): 2 µg/mL (≈ 6.18 µM)

CN[C@H](CC(C)C)C(=O)N[C@H]1C(=O)N[C@@H](CC(N)=O)C(=O)N[C@H]2C(=O)N[C@H]3C(=O)N[C@H](C(=O)N[C@H](C(=O)O)c4cc(O)cc(O)c4-c4cc3ccc4O)[C@H](O)c3ccc(c(Cl)c3)Oc3cc2cc(c3O[C@@H]2O[C@H](CO)[C@@H](O)[C@H](O)[C@H]2O[C@H]2C[C@](C)(N)[C@H](O)[C@H](C)O2)Oc2ccc(cc2Cl)[C@H]1O [vancomycin]
MIC [1, 26]: 1 µg/mL (≈ 0.69 µM) | MIC ([2]; EFM158, read-out: MIC(μg/ml) / vancomycin): 0.5 µg/mL (≈ 0.345 µM) | MIC ([3]; EFA1560, read-out: MIC(μg/ml) / vancomycin): 8 µg/mL (≈ 5.52 µM) | MIC [4, 26]: 0.5 µg/mL (≈ 0.345 µM) | MIC [5, 26]: 2 µg/mL (≈ 1.38 µM) | MIC [6, 26]: 0.5 µg/mL (≈ 0.345 µM) | MIC [7, 26]: 1 µg/mL (≈ 0.69 µM) | MIC ([8]; EFM156, read-out: MIC(μg/ml) / vancomycin): 1 µg/mL (≈ 0.69 µM) | MIC [9, 26]: 2 µg/mL (≈ 1.38 µM) | MIC [10, 26]: 0.5 µg/mL (≈ 0.345 µM) | MIC [11, 26]: 1 µg/mL (≈ 0.69 µM) | MIC [12, 26]: 1 µg/mL (≈ 0.69 µM) | MIC ([14]; EFA1566, read-out: MIC(μg/ml) / vancomycin): 2 µg/mL (≈ 1.38 µM) | MIC [15, 26]: 1 µg/mL (≈ 0.69 µM) | MIC ([16]; EFM151, read-out: MIC(μg/ml) / vancomycin): 1 µg/mL (≈ 0.69 µM) | MIC [17, 26]: 0.5 µg/mL (≈ 0.345 µM) | MIC [18, 26]: 1 µg/mL (≈ 0.69 µM) | MIC ([19]; EFA1568, read-out: MIC(μg/ml) / vancomycin): 0.5 µg/mL (≈ 0.345 µM) | MIC ([20]; EFA1555, read-out: MIC(μg/ml) / vancomycin): 0.5 µg/mL (≈ 0.345 µM) | MIC [21, 26]: 2 µg/mL (≈ 1.38 µM) | MIC [22, 26]: 0.5 µg/mL (≈ 0.345 µM) | MIC [24, 26]: 0.5 µg/mL (≈ 0.345 µM) | MIC [25, 26]: 0.5 µg/mL (≈ 0.345 µM)

From article doi:10.1101/2024.09.05.611349v1 (biorxiv, 2024)
